In series [1] the target is T1, CYP2C8 (Homo sapiens, UniProt P10632).
T1 construct: CEREP (contract laboratory)
Briefly: Cytochrome p450 inhibition (CEREP). It counts as in vitro ADME. The note with it: 10 μM. The procedure:
(§1) JB6121 was also tested for CYP inhibition, see Table 6 below. Assays where performed by CEREP, Seattle, Wash., according to Atkinson, A et al., 2005, Drug Metab. Dispos. 33:1637-1647.

The target in series [2] is T2, CYP2C19 (Homo sapiens, UniProt P33261).
T2 construct: CEREP (contract laboratory)
T2 sequence (P33261 whole entry): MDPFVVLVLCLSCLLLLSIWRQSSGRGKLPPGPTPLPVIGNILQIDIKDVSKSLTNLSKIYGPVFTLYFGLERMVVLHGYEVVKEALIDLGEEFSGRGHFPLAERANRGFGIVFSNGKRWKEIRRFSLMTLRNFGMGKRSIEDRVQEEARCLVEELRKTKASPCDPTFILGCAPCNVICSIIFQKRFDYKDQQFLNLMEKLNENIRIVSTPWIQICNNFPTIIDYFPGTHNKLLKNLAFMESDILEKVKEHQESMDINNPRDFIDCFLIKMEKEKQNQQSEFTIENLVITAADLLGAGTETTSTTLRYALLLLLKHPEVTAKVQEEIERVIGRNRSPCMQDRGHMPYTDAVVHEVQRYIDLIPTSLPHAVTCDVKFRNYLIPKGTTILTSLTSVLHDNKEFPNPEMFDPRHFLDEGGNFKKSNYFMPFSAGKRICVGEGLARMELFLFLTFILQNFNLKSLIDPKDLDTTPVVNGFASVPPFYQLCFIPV
Briefly: Cytochrome p450 inhibition (CEREP). To be noted: 10 μM. Type of series: in vitro ADME. The procedure: as §1

Series [3] has as its target T3, CYP2D6 (Homo sapiens, UniProt P10635).
T3 construct: CEREP (contract laboratory)
The series can be described thus: Cytochrome p450 inhibition (CEREP). Type of series: in vitro ADME. The note with it: 10 μM. The procedure:
as §1

In series [4] the target is T4, CYP2B6 (Homo sapiens, UniProt P20813).
T4 construct: CEREP (contract laboratory)
T4 sequence (P20813 whole entry): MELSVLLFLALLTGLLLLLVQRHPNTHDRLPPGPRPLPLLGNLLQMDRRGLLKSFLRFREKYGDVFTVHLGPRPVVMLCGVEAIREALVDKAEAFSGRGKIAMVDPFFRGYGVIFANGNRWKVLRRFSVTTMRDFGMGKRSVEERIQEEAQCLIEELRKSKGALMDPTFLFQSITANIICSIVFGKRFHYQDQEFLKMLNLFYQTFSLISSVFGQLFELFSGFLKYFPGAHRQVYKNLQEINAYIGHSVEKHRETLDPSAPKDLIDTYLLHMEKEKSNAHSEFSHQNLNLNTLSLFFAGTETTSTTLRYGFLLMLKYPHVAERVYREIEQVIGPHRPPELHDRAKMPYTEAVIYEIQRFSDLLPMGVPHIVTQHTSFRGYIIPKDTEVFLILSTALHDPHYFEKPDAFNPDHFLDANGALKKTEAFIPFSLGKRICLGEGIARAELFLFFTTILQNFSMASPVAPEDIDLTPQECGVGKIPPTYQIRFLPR
Briefly: Cytochrome p450 inhibition (CEREP). Type of series: in vitro ADME. The note with it: 10 μM. The procedure:
as §1

The target of series [5] is T5, CYP1A2 (Homo sapiens, UniProt P05177).
T5 construct: CEREP (contract laboratory)
T5 sequence (P05177 whole entry): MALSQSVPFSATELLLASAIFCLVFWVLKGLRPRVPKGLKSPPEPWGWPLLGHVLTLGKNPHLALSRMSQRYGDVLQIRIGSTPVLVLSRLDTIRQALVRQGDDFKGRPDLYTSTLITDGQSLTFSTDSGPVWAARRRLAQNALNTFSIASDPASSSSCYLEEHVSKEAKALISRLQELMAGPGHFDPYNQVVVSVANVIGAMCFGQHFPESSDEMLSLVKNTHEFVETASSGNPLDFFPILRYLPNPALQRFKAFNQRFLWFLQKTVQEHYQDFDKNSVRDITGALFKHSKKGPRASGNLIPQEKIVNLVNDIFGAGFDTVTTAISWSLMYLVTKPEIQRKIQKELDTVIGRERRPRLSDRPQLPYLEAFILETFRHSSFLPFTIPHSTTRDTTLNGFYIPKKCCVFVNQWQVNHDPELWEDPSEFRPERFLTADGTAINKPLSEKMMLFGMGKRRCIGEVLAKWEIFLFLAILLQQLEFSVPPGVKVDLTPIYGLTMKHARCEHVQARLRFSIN
Briefly: Cytochrome p450 inhibition (CEREP). Type of series: in vitro ADME. To be noted: 10 μM. The procedure:
as §1

In series [6] the target is T6, CYP2C9 (Homo sapiens, UniProt P11712).
T6 construct: CEREP (contract laboratory)
T6 sequence (P11712 whole entry): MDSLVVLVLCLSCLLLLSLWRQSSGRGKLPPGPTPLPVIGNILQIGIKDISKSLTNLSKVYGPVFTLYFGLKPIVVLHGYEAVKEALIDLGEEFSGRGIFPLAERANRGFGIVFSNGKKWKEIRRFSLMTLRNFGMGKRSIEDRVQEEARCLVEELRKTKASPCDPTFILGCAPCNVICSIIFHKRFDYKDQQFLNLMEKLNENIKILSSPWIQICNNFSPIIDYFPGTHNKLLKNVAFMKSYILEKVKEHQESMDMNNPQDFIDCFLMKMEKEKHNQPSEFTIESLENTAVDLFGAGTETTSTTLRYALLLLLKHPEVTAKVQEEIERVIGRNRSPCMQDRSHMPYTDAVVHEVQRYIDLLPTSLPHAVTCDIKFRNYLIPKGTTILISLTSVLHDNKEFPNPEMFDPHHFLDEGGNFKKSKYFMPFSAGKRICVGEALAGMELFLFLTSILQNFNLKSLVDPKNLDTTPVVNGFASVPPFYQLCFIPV
The series can be described thus: Cytochrome p450 inhibition (CEREP). Type of series: in vitro ADME. To be noted: 10 μM. The procedure:
as §1

The target of series [7] is T7, CYP3A4 (Homo sapiens, UniProt P08684).
T7 construct: CEREP (contract laboratory)
T7 sequence (P08684 whole entry): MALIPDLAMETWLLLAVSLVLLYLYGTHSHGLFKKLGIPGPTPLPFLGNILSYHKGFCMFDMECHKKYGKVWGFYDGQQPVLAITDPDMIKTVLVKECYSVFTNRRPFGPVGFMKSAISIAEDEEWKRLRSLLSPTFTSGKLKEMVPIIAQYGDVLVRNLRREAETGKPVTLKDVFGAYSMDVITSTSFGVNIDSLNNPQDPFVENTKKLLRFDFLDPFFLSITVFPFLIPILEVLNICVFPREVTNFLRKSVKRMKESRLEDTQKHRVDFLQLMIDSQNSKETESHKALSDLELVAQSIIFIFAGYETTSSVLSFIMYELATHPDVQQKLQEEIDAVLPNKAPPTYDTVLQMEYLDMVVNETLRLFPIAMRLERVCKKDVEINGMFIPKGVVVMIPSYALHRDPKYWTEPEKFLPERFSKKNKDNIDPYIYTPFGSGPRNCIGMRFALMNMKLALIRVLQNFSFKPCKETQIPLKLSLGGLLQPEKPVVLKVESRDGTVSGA
Briefly: Cytochrome p450 inhibition (CEREP). Type of series: in vitro ADME. The note with it: 10 μM. The procedure: as §1

Series [8] is described as follows: Aqueous solubility (CEREP). Type of series: physicochemical. The procedure: (§2) Preliminary screening measures were conducted by CEREP. All values fall within acceptable limits (Table 5). Solubility assays where performed by CEREP, Seattle, Wash., according to Lipinski, C. A. et al., 1997, Adv. Drug Del. Rev., 46:3-26. Protein binding assays where performed by CEREP, Seattle, Wash., according to Banker, M. J. et al., 2003, J. Pharm. Sci., 92:967-974. Permeability assays where performed by CEREP, Seattle, Wash. according to Hildalgo, I. J., 1998, Gastroenterology, 96:736-749. Metabolic stability assays where performed by CEREP, Seattle, Wash., according to Obach, R. S. et al., 1997, J. Pharmacol. Exp. Ther., 283:46-58. P-glycoprotein inhibition assays where performed by CEREP, Seattle, Wash., according to Polli, J. W. et al., 2001, J. Pharm. Exp. Ther., 299:620-628. Cell viability assays where performed by CEREP, Seattle, Wash., according to Mosmann, T., 1983, J. Immunol. Met. 65:55-62. hERG automated patch clamp assays where performed by CEREP, Seattle, Wash., according to Mathes, C., 2006, Expert Opin. Ther. Targets, 10:230-241.

The target of series [9] is T8, TLR9 (Mus musculus, UniProt Q9EQU3).
T8 construct: endogenous in cells
T8 sequence (Q9EQU3 26-1032): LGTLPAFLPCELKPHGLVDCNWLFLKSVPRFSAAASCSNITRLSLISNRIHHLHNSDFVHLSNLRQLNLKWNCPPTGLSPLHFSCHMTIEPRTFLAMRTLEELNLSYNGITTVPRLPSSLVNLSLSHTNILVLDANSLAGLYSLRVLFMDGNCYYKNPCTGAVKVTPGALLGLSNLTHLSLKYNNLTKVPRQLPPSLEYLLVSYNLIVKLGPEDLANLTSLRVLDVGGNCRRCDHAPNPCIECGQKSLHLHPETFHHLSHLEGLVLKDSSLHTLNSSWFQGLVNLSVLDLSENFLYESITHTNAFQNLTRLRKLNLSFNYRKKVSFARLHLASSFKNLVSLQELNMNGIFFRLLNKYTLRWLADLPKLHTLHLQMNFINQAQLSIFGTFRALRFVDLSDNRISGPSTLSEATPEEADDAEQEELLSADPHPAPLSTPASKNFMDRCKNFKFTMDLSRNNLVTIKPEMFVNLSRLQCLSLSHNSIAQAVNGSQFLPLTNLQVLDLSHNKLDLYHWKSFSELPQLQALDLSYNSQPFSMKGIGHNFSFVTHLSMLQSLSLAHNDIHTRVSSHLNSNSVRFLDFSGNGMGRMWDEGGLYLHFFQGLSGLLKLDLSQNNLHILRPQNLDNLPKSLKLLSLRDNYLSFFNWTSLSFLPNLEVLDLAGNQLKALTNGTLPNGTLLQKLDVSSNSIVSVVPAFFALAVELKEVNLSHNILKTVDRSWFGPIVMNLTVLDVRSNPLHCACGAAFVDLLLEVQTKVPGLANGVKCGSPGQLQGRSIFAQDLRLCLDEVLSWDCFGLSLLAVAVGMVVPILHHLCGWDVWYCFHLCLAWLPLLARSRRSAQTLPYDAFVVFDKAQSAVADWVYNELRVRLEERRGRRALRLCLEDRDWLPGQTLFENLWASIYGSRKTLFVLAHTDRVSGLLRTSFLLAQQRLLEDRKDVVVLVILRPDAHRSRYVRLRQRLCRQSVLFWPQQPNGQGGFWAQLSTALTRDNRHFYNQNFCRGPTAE
The series can be described thus: In vivo TLR9 knockdown (CpG-DNA challenge, serum cytokines). Further details: species or system mice. The procedure: Mice were treated with test antagonist at varying doses at T=0 hr. Agonist treatment (CpG-DNA) dosed one hour later, T=1 hr for IP groups and two hours later, T=2 hr for PO groups. Necropsy performed 3 hours post agonist treatment, T=4 hr (IP groups) or T=5 hr (PO groups). Serum cytokines induced by the TLR agonist are measured by ELISA. Groups size per dose, n=3. The mean+/−SD of two independent ELISA's at differing serum dilutions is plotted.

Series [10] deals with T9, hERG (Homo sapiens, UniProt Q12809).
T9 construct: host or cells: CHO (Chinese hamster ovary)
T9 sequence (Q12809 whole entry): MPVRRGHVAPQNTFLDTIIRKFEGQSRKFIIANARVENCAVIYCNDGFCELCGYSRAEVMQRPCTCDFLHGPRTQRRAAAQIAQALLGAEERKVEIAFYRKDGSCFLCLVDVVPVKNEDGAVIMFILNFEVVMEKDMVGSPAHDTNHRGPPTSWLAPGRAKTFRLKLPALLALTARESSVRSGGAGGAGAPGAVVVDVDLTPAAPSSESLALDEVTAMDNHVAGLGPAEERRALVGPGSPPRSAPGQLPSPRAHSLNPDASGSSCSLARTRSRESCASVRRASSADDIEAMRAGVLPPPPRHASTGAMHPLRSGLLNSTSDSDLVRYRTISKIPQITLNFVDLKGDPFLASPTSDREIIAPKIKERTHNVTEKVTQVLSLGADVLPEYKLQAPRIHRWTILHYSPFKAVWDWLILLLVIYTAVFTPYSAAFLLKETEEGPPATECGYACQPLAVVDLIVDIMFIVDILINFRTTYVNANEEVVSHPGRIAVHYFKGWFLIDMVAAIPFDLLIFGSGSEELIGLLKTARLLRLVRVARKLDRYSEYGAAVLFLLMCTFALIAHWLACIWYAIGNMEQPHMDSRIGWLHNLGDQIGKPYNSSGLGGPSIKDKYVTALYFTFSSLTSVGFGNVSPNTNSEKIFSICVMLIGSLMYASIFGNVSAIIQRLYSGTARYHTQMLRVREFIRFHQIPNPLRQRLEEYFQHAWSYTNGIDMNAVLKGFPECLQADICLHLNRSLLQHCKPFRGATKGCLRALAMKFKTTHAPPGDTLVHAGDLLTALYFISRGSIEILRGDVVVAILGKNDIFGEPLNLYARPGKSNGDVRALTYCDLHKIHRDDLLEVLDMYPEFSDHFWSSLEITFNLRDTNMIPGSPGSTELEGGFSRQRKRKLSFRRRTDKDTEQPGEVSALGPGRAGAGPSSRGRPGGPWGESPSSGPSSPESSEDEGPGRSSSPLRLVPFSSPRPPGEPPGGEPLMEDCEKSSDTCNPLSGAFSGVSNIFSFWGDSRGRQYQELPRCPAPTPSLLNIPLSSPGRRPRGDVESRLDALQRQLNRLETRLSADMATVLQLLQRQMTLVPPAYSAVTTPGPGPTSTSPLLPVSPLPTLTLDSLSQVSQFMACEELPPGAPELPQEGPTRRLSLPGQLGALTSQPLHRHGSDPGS
Briefly: hERG automated patch clamp (CEREP). Type of series: cell-based. The procedure:
as §2
For orientation: The hERG channel carries a current that helps repolarise heart muscle cells.

Series [11] deals with Hep-G2 cells. Briefly: Cell viability, Hep-G2 cells (CEREP). It counts as cell-based. The procedure:
as §2

The structures appear in SMILES notation. Values after ≈ are worked out from the molar mass of the structure shown. Where two headings read alike, the source gives them in different places.

T3 sequence (P10635 whole entry): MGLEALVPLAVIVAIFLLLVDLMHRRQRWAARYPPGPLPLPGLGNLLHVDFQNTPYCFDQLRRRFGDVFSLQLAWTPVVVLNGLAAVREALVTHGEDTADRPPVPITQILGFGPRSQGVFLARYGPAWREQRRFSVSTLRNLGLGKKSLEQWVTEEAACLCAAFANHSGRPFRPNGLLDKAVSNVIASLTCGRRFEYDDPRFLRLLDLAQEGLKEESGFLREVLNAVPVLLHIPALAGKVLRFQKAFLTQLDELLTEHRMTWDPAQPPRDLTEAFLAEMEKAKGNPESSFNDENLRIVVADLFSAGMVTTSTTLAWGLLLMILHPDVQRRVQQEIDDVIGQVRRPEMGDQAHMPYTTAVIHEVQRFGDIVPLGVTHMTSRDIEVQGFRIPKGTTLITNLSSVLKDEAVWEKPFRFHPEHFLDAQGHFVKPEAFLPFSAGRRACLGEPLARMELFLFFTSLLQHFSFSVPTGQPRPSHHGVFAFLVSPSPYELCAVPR
T1 sequence (P10632 whole entry): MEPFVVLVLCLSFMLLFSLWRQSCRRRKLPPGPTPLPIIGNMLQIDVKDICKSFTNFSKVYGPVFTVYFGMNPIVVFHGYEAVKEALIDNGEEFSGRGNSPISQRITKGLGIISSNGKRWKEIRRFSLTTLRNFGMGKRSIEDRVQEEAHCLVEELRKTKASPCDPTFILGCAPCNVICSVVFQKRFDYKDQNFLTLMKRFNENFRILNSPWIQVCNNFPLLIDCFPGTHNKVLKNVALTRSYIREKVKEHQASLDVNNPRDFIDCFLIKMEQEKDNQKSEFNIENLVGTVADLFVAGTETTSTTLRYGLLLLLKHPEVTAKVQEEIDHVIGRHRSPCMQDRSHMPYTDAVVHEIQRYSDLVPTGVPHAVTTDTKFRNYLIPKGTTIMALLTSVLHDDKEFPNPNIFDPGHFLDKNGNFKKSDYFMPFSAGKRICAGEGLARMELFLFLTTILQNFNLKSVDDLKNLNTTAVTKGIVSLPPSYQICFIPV

By solubility is commonly meant how much of the substance goes into solution per volume. In general, inhibition refers to the change of the read-out against control, counted positive when it falls. With `CN1CCN(c2nc(NCCN3CCOCC3)c3nc(Cl)c(NCCN4CCOCC4)nc3n2)CC1` [JB6121, 6-chloro-2-(4-methylpiperazin-1-yl)-N^4,N^7-bis(2-morpholinoethyl)pteridine-4,7-diamine], the “CYP2C8 Mean % Control” value in [1] is given as 87.7%. The “CYP2C19 Mean % Control” value in series [2] was 92.9%. Also, the “CYP2D6 Mean % Control” value in [3] was determined as 80.9%. Further, in series [4], the “CYP2B6 Mean % Control” value worked out at 58.2%. The “CYP1A2 Mean % Control” value in series [5] turned out to be 97.0%. In addition, the “CYP2C9 Mean % Control” value in series [6] stood at 46.7%. The “CYP3A4, BFC substrate Mean % Control” value in series [7] (BFC substrate) is listed as 94.1%. Also, in [7] (BzRes substrate), the “CYP3A4, BzRes substrate Mean % Control” value was 104.8%. Moreover, the solubility in [8] (PBS, pH 7.4, aqueous buffer, read-out: Aqueous Solubility, PBS, pH 7.4) is more than 200 µM; in [8] (simulated gastric fluid, read-out: Aqueous Solubility, simulated Gastric Fluid) it was more than 200 µM; in series [8] (simulated intestinal fluid, fassgf or other biorelevant, read-out: Aqueous Solubility, simulated Intestinal Fluid), 195 µM (≈ 102 µg/mL). Besides, the “ID50, TLR9 knockdown, IP injection” value in series [9] (mice, IP, CpG-DNA 1 h later) is listed as 55.27 μg injection dose. Besides, in [9] (mice, PO, CpG-DNA 2 h later), the “ID50, TLR9 knockdown, PO gavage” value is 59.99 μg delivery dose. Also, the ED50 in series [9] (mouse, translated for a 25 gram mouse, read-out: ID50, TLR9 knockdown) is approximately 2.4 mg/kg. 10 µM produced 11% inhibition in series [10]. In series [11], the “Cell Viability, Hep-G2 cells, % inhibition at 100 μM” value came out at 8.5%.
